Patent US20260266837A1, “Methods for Cancer Recurrence Detection and Treatment Thereof” (Institut Curie, priority 2022, published 2026)

Tested on: MDA-MB-468 cells, persister genes
Assay: scRNA-seq expression changes induced by EZH2i-1 in the absence of chemotherapy
Assay type: cell-based, human
Experimental: Cell lines, culture conditions and drug treatments. MDA-MB-468 cells were cultured in DMEM (Gibco-BRL, Ref: 11966025), supplemented with 10% heat-inactivated fetal calf serum (Gibco-BRL, Ref: 10270-106). HCC38 and BT20 cell lines were cultured in RPMI 1640 (Gibco-BRL, Ref: 11875085), supplemented with 10% heat-inactivated fetal calf serum. […] Cells were treated with 5 μM of 5-FU (Sigma, Ref: F6627) alone or in combination with KDM6A/Bi or EZH2i for indicated days. For EZH2i, cells were pretreated with UNC 1999, UNC 2400 or GSK 126 for 10 days before the addition of 5-FU for an additional 21 days (FIG. 4 and Extended FIG. 8).
Single-cell RNA-seq. For each single cell suspension (DMSO-DO- #1, 5-FU-D33- #1, 5-FU-D214- #1, 5-FU-D67- #2, 5-FU-D171- #2, 5-FU-D50- #3, 5-FU-D77- #3 and 5-FU-D202- #3) or PDX dissociated cells (PDX_95, PDX_39 or PDX_172, untreated and persister cells), approximately 3,000 cells were loaded on a Chromium Single Cell Controller Instrument (Chromium Single Cell 3′v3, 10× Genomics, Ref: PN-1000075) according to the manufacturer's instructions. Samples and libraries were prepared according to the manufacturer's instructions. Libraries were sequenced on a NovaSeq 6000 (Illumina) in PE 28-8-91 with a coverage of 50,000 reads/cell.
Single-cell RNA-seq analysis. The scRNA-seq sequencing files were preprocessed using the cellRanger pipeline. For PDX samples, files were aligned against hg19 and mm10 genomes and only cells with a majority of human reads were retained for the analysis. For the MDA-MB-468 human cell line, sequences were aligned against the hg38 genome only. Cells with less than 3,000 […] for MDA-MB-468 or 2,500 for PDX or more than 8,000 detected genes, or more than 100,000 reads were filtered out, as well as cells with a percent of mitochondrial reads greater than 15% or a percentage of spike in greater than 5%. Normalization, dimensionality reduction and Louvain clustering was done using monocle3 (v0.2.2)^52 keeping the first 50 Principal Components (PC). Cell cycle was determined for each cell using Seurat (v3.1.5)^53. […] Differentially expressed genes were obtained by comparing raw gene expression values using edgeR GLM statistical model^54. […] For MDA-MB-468 samples, as the number of cells was high, a subset of 500 cells per cluster was subsampled from each cluster for the differential analysis and downstream steps. Intra-cluster correlation scores were calculated using Pearson's correlation score, with a random subsampling of n=500 cells per cluster.

CCCc1cc(C)[nH]c(=O)c1CNC(=O)c1cc(-c2ccc(N3CCN(C(C)C)CC3)nc2)cc2c1cnn2C(C)C [EZH2i-1]
activation of persister genes with depletion of H3K27me3 upon 5-FU treatment (23/37 genes, no chemotherapy): 62%
over-expression of persister genes independently of any H3K27me3 enrichment in untreated cells (78/131 genes, no chemotherapy): 60%
expression of candidate master TFs FOXQ1, FOSL1 and N 2RF2 (EZH2i-1 treatment): re-expressed by EZH2i-1 treatment
Pearson correlation of expression fold-changes induced by EZH2i-1 with those induced by chemotherapy in persister cells (early time points, D33 versus D0): 0.71
Pearson correlation of expression fold-changes induced by EZH2i-1 with changes in resistant cells (resistant cells): 0.31
